Values of other authors, collected in patent US20230210738A1, “Low-Skin Irritating Deodorant Composition And A Method For Preparing Thereof” (Sislan (Zhuhai) Pharmaceutical Technology Co. Ltd., priority 2021, published 2023).

Columns and labels:
[1] = hexamine as weak base
bacteria = conditions: hexamine prepared in basic condition

## C1N2CN3CN1CN(C2)C3 [hexamine, hexamethylenetetramine]
[1]
  neutralization of odoriferous, volatile organic acids: able to neutralize a number of odoriferous, volatile organic acids
bacteria
  antibacterial effect: capable of demonstrating an antibacterial effect
